According to paper PMC10353187, “Discovery of a new potent oxindole multi-kinase inhibitor among a series of designed 3-alkenyl-oxindoles with ancillary carbonic anhydrase inhibitory activity as antiproliferative agents” (BMC Chemistry, 2023):

Tests used:
Assay in all cases: NCI-60 single-dose antiproliferative assay (SRB)
Assay type in all cases: cell-based
786-0 = conditions: Homo sapiens; 10 μM single dose; 786-0, Renal cancer; read-out: Cell Growth inhibition Percent
Procedure, shortened: (§1)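 Readout is sulforhodamine B absorbance at 515 nm after TCA fixation, converted to percent growth versus time-zero (Tz) and control (C) plates and reported as GI%. Compounds were tested once at 10 µM for 48 h in RPMI 1640 containing 5% FBS.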

A498 = conditions: Homo sapiens; 10 μM single dose; A498, Renal cancer; read-out: Cell Growth inhibition Percent
Procedure, shortened: as §1

A549/ATCC = conditions: Homo sapiens, 10 μM single dose, Non-small cell lung cancer, read-out: Cell Growth inhibition Percent
Procedure, shortened: as §1

RXF 393 = conditions: Homo sapiens; 10 μM single dose; RXF 393, Renal cancer; read-out: Cell Growth inhibition Percent
Procedure, shortened: as §1

TK-10 = conditions: Homo sapiens; 10 μM single dose; TK-10, Renal cancer; read-out: Cell Growth inhibition Percent
Procedure, shortened: as §1

SF-295 = conditions: Homo sapiens; 10 μM single dose; SF-295, CNS cancer; read-out: Cell Growth inhibition Percent
Procedure, shortened: as §1

SK-OV-3 = conditions: Homo sapiens; 10 μM single dose; SK-OV-3, Ovarian Cancer; read-out: Cell Growth inhibition Percent
Procedure, shortened: as §1

T-47D = conditions: Homo sapiens, T47D, 10 μM single dose, Breast cancer, read-out: Cell Growth inhibition Percent
Procedure, shortened: as §1

UACC-62 = conditions: Homo sapiens; 10 μM single dose; UACC-62, Melanoma; read-out: Cell Growth inhibition Percent
Procedure, shortened: as §1

SNB-19 = conditions: Homo sapiens; 10 μM single dose; SNB-19, CNS cancer; read-out: Cell Growth inhibition Percent
Procedure, shortened: as §1

K-562 = conditions: Homo sapiens, K562; 10 μM single dose; K-562, Leukemia; read-out: Cell Growth inhibition Percent
Procedure, shortened: as §1

NCI-H460 = conditions: Homo sapiens; 10 μM single dose; NCI-H460, Non-small cell lung cancer; read-out: Cell Growth inhibition Percent
Procedure, shortened: as §1

MOLT-4 = conditions: Homo sapiens; 10 μM single dose; MOLT-4, Leukemia; read-out: Cell Growth inhibition Percent
Procedure, shortened: as §1

CCRF-CEM = conditions: Homo sapiens, 10 μM single dose, Leukemia, read-out: Cell Growth inhibition Percent
Procedure, shortened: as §1

HCT-116 = conditions: Homo sapiens; 10 μM single dose; HCT-116, Colon cancer; read-out: Cell Growth inhibition Percent
Procedure, shortened: as §1

RPMI-8226 = conditions: Homo sapiens; 10 μM single dose; RPMI-8226, Leukemia; read-out: Cell Growth inhibition Percent
Procedure, shortened: as §1

COLO205 = conditions: Homo sapiens, COLO 205; 10 μM single dose; COLO205, Colon cancer; read-out: Cell Growth inhibition Percent
Procedure, shortened: as §1

OVCAR-3 = conditions: Homo sapiens; 10 μM single dose; OVCAR-3, Ovarian Cancer; read-out: Cell Growth inhibition Percent
Procedure, shortened: as §1

Row | Compound | inhibition at 10 µM (786-0) [%] | inhibition at 10 µM (A498) [%] | inhibition at 10 µM (A549/ATCC) [%] | inhibition at 10 µM (RXF 393) [%] | inhibition at 10 µM (TK-10) [%] | inhibition at 10 µM (SF-295) [%] | inhibition at 10 µM (SK-OV-3) [%] | inhibition at 10 µM (T-47D) [%] | inhibition at 10 µM (UACC-62) [%] | inhibition at 10 µM (SNB-19) [%] | inhibition at 10 µM (K-562) [%] | inhibition at 10 µM (NCI-H460) [%] | inhibition at 10 µM (MOLT-4) [%] | inhibition at 10 µM (CCRF-CEM) [%] | inhibition at 10 µM (HCT-116) [%] | inhibition at 10 µM (RPMI-8226) [%] | inhibition at 10 µM (COLO205) [%] | inhibition at 10 µM (OVCAR-3) [%]
1 | O=C1Nc2ccccc2C1=CNc1ccc(C(=O)O)cc1 [Compound 4c, 4-{[(2-Oxoindolin-3-ylidene)methyl]amino}benzoic acid] | 4.08 | 20.1 | 9.11 | 29.6 | 19.1 | – | – | – | – | – | – | – | – | – | – | – | – | –
2 | NS(=O)(=O)c1nnc(NC=C2C(=O)Nc3ccccc32)s1 [Compound 4d, 5-{[(2-Oxoindolin-3-ylidene)methyl]amino}-1,3,4-thiadiazole-2-sulfonamide] | 1.8 | – | – | – | – | 0.84 | 0.47 | 14.8 | 3.05 | – | – | – | – | – | – | – | – | –
3 | NS(=O)(=O)N/C=C1/C(=O)Nc2ccccc21 [Compound 5, 3-(sulfamidmethylene)indoline-2-one] | – | – | – | – | – | – | 5.43 | 7.19 | 4.35 | 0.31 | – | – | – | – | – | – | – | –
4 | O=C1Nc2ccccc2C1=CNc1ccc(C(=O)Nc2ccc(S(=O)(=O)Nc3ncccn3)cc2)cc1 [Compound 9b, 4-{[(2-Oxoindolin-3-ylidene)methyl]amino}-N-{4-[N-(pyrimidin-2-yl)sulfamoyl]phenyl}benzamide] | 4.99 | 9.11 | – | – | – | – | – | – | 7.84 | – | 3.5 | 1.64 | – | – | – | – | – | –
5 | NS(=O)(=O)c1ccc(NCc2ccc(NC=C3C(=O)Nc4ccccc43)cc2)cc1 [Compound 11a, 4-{[4-({[2-Oxoindolin-3-ylidene]methyl}amino)benzyl]amino}benzenesulfonamide] | 0.56 | – | 4.86 | 26.2 | – | – | – | 6.76 | – | – | 0.06 | – | 1.28 | – | – | – | – | –
6 | O=C1Nc2ccccc2C1=CNc1ccc(CNc2ccc(S(=O)(=O)Nc3ncccn3)cc2)cc1 [Compound 11b, 4-{[4-({[2-Oxoindolin-3-ylidene]methyl}amino)benzyl]amino}-N-(pyrimidin-2-yl)benzenesulfonamide] | – | – | – | – | – | 0.84 | – | 27.5 | 3.27 | – | 32.8 | 4.26 | – | 25.4 | 13.4 | 28.9 | – | –
7 | O=C1Nc2ccccc2C1=CNc1ccc(C(=O)C=CNc2nccs2)cc1 [Compound 13c, 3-{[(4-{3-[Thiazol-2-ylamino]acryloyl}phenyl)amino]methylene}indolin-2-one] | – | – | 21.6 | – | – | – | 3.75 | – | – | – | 24.8 | 7.04 | – | 12.1 | 21.9 | 35 | 1.8 | 3.91
8 | O=C(Nc1ccc(NC=C2C(=O)Nc3ccccc32)cc1)Nc1nccs1 [Compound 15c, 1-{4-[((2-Oxoindolin-3-ylidene)methyl)amino]phenyl}-3-(thiazol-2-yl)urea] | 47.1 | 108 | 43.4 | 120 | 24.3 | 29.4 | 45 | 58.8 | 75.1 | 69 | 82.7 | 83.2 | 67.8 | – | 73 | 16.4 | 74.2 | 84.6
